Measurements from patent US8697655B2, “Method of selecting polypeptide sequence, and metal oxide or silicon-containing compound binding peptide and use thereof” (Riken, priority 2010, dated 2014).

Experiment: Binding of P-EGFs to TiO2 plate, anti-EGF antibody chemiluminescence detection
Conditions: about 2.0 ng, 10 μl in TBS pH 7.5; washed 3 times with TBS-T; anti-human EGF antibody and HRP secondary
Method: Subsequently, in accordance with a scheme in the left in FIG. 4-2, various P-EGF solutions (about 2.0 ng, 10 μl in TBS, pH 7.5) were added on a TiO2 plate (a plate produced by vapor deposition of titanium on the surface of a glass plate with a diameter of 15 mm and a thickness of 0.6 mm (manufactured by Matsunami Glass Ind., Ltd.) (the vapor deposition step was requested to Osaka Vacuum Industrial Co., Ltd.) was used); and a washing operation (TBS-T buffer, pH 7.5) was repeated 3 times. And, after blocking with 0.1% BSA solution, an anti-human EGF antibody was added as a primary antibody. Furthermore, after the washing operation (TBS-T buffer, pH 7.5) was repeated 3 times, an anti-mouse IgG antibody HRP conjugate was added as a secondary antibody. At the end, using a luminescent phenomenon by a reaction between a chemiluminescence reagent and HRP as an index, the presence of protein immobilized on the TiO2 plate was detected. […]
First, in accordance with a scheme in the left in FIG. 7-1, various P-EGF solutions (about 2.0 ng, 10 μl in TBS, pH 7.5) were added on a TiO2 plate and a washing operation (TBS-T buffer, pH 7.5) was repeated 3 times. […] At the end, using a luminescent phenomenon by a reaction between a chemiluminescence reagent and HRP as an index, the presence of protein immobilized on the TiO2 plate was detected.

EGF: EGF to which a peptide was not fused
TiO2 plate binding (luminescent phenomenon of protein immobilized on the plate): did not exhibit TiO2 binding
